In patent US20230002327A1, “SMALL-MOLECULE REGULATOR OF TLR8” (TSINGHUA UNIVERSITY, priority 2019, published 2023):

target: T1, TLR7 (Homo sapiens, UniProt Q9NYK1); assay: Inhibition of R848-induced signaling in HEK-Blue hTLR7 cell line (Quanti-Blue); format: cell-based; details: not given
T1 construct: host or cells: HEK-Blue hTLR7 (HEK293-derived SEAP reporter cells)
T1 sequence (Q9NYK1 27-1049): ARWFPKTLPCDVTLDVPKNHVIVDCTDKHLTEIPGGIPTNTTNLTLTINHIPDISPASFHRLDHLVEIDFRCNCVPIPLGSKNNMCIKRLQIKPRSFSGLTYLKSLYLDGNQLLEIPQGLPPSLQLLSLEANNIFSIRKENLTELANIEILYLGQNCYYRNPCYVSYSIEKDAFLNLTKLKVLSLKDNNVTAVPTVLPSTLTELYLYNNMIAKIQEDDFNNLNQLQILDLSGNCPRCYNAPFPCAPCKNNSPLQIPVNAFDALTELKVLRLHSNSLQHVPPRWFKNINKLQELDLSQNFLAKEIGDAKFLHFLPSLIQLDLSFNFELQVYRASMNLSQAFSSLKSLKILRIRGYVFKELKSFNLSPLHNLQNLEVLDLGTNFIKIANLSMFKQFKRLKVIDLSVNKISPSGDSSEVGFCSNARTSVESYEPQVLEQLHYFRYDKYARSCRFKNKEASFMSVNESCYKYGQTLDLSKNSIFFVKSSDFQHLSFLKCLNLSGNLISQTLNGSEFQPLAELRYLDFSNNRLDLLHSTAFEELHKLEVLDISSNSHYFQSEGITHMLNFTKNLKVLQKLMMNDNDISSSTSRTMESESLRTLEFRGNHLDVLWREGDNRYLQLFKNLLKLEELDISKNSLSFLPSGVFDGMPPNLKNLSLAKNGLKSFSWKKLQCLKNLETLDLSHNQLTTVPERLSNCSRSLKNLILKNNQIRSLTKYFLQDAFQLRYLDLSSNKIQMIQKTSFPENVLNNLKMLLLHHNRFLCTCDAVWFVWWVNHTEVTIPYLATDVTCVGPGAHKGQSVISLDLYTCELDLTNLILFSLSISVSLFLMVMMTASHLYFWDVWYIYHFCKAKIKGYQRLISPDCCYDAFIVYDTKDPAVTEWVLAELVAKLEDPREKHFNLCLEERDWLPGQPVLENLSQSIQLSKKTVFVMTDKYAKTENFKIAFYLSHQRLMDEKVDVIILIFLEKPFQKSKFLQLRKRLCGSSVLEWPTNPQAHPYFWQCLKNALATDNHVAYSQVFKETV
Experimental: (§1) HEK Blue hTLR8 cells or HEK Blue hTLR7 cells were cultured in DMEM medium supplemented with 10% fetal bovine serum, penicillin (100 U/mL) and streptomycin ([…]). Thereafter, cells were seeded in 96-well plate (45,000 cells per well), and were cultured for 24 hours in a humidified incubator (37° C., 5% CO2).
After 24 hours, the supernatant and suspending cells were aspirated and replaced with fresh serum-free DMEM. Cells were treated with 1 μg/mL of R848 (agonist of TLR7/8) or 5 μg/mL of ssRNA40/LyoVec or 5 μg/mL of ORN06/LyoVec (InvivoGen) and compounds with specified concentrations, and were placed in a humidified incubator (37° C., 5% CO2) for co-culture.
(§2) After 24 hours, 50 μL of the medium was aspirated from each well and then added to a new 96-well plate, followed by the addition of 50 μL of Quanti-Blue in each well and the incubation at 37° C. in darkness. Changes in color would occur in the […] within 60 minutes, and the absorbance was measured at 620 nm by using the multi-mode plate reader Vrioskan Flash. Inhibition rate (%)=[R848 (OD620)−Compound (OD620)]/[R848 (OD620)−Control (OD620)]×100%. Among these, the control group was only added with the same amount of cells. Finally, the software Prism 6.0 was utilized to plot a graph and calculate IC50 values. Or, the activity of the cells treated with ligand and DMSO was defined as 100% activity, and the activity of the untreated cells was defined as 0% activity.

Compound	TLR7 (normalized inhibitory effect on R848-induced signaling)
CCOCc1nc(C)c(-c2ccccc2)n1CC(C)(C)O [Compound 45, 1-[2-(ethoxymethyl)-4-methyl-5-phenyl-1H-imidazole-1-yl]-2-methylpropan-2-ol]	0.9 ± 0.1
CCOCc1nc(C=O)c(-c2ccccc2)n1CC(C)(C)O [Compound 41, 2-(ethoxymethyl)-1-(2-hydroxy-2-methylpropyl)-5-phenyl-1H-imidazole-4-carbaldehyde]	1.1 ± 0.2
CCOCc1nc(COC)c(-c2ccccc2)n1CC(C)(C)O [Compound 44, 1-[2-(ethoxymethyl)-4-(methoxymethyl)-5-phenyl-1H-imidazole-1-yl]-2-methylpropan-2-ol]	0.9 ± 0.2
CCOCc1ncc(-c2ccccc2)n1CC(C)(C)O [Compound 50, 1-[2-(ethoxymethyl)-5-phenyl-1H-imidazole-1-yl]-2-methylpropan-2-ol]	1.0 ± 0.1
CCOCc1nc(C#N)c(-c2ccccc2)n1CC(C)(C)O [Compound 38, 2-(ethoxymethyl)-1-(2-hydroxy-2-methylpropyl)-5-phenyl-1H-imidazole-4-carbonitrile]	1.0 ± 0.2
CCOCc1nc(CO)c(-c2ccccc2)n1CC(C)(C)O [Compound 43, 1-[2-(ethoxymethyl)-4-(hydroxymethyl)-5-phenyl-1H-imidazole-1-yl]-2-methylpropan-2-ol]	0.9 ± 0.2
CCOCc1nc(C(=N)N)c(-c2ccccc2)n1CC(C)(C)O [Compound 39, 2-(ethoxymethyl)-1-(2-hydroxy-2-methylpropyl)-5-phenyl-1H-imidazole-4-carboxamidine]	0.8 ± 0.1
CCOCc1nc(I)c(-c2cccc3ccccc23)n1CC(C)(C)O [Compound 62, 1-(2-(ethoxymethyl)-4-iodo-5-(naphthalen-1-yl)-1H-imidazole-1-yl)-2-methylpropan-2-ol]	0.9 ± 0.1
CCOCc1nc(I)c(-c2ccccc2)n1CC(C)C [Compound 58, 2-(ethoxymethyl)-4-iodo-1-(2-methylpropyl)-5-phenyl-1H-imidazole]	0.1 ± 0.2
CCOCc1nc(C(C)C)c(-c2ccccc2)n1CC(C)(C)O [Compound 48, 1-[2-(ethoxymethyl)-5-phenyl-4-(prop-2-yl)-1H-imidazole-1-yl]-2-methylpropan-2-ol]	0.7 ± 0.1

target: T2, TLR8 (Homo sapiens, UniProt Q9NR97); assay: Inhibition of R848-induced signaling in HEK-Blue hTLR8 cell line (Quanti-Blue); format: cell-based; details: HEK-Blue hTLR8 cell line; normalized, ligand+DMSO = 100% activity, untreated = 0%
T2 construct: host or cells: HEK-Blue hTLR8 (HEK293-derived SEAP reporter cells)
T2 sequence (Q9NR97 27-1041): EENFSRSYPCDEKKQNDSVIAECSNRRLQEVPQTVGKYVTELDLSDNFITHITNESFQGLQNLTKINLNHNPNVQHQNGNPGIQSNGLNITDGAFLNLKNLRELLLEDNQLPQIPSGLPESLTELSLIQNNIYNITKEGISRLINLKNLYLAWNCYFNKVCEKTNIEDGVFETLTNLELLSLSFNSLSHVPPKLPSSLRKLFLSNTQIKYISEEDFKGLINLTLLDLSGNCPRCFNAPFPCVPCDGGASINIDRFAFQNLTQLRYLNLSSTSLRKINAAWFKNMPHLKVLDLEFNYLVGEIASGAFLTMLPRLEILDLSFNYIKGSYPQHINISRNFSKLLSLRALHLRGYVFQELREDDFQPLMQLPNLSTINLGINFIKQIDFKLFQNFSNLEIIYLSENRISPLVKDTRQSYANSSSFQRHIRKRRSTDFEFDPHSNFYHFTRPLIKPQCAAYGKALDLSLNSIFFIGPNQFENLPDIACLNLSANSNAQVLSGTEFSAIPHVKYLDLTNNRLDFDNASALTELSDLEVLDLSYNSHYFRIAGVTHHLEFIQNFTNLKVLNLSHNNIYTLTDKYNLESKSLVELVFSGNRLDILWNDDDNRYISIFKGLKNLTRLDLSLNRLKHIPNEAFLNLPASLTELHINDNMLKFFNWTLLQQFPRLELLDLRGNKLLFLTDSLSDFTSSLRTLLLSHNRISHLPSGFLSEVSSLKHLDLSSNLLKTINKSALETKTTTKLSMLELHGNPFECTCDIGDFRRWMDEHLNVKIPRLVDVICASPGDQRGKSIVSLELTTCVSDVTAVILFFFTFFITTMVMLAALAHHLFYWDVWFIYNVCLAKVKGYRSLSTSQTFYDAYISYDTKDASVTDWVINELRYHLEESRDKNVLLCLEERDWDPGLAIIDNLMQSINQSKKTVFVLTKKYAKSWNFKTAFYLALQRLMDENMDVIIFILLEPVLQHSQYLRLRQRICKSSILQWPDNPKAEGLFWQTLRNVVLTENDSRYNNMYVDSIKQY
Experimental: as §1
After 24 hours, the supernatant and suspending cells were aspirated and replaced with fresh serum-free DMEM.
as §2

Compound	Remaining R848-induced TLR8 signaling (normalized activity; ligand+DMSO = 1, untreated = 0)
CCOCc1nc(C)c(-c2ccccc2)n1CC(C)(C)O [Compound 45, 1-[2-(ethoxymethyl)-4-methyl-5-phenyl-1H-imidazole-1-yl]-2-methylpropan-2-ol]	0.8 ± 0.2
CCOCc1nc(C=O)c(-c2ccccc2)n1CC(C)(C)O [Compound 41, 2-(ethoxymethyl)-1-(2-hydroxy-2-methylpropyl)-5-phenyl-1H-imidazole-4-carbaldehyde]	1.2 + 0.2
CCOCc1nc(COC)c(-c2ccccc2)n1CC(C)(C)O [Compound 44, 1-[2-(ethoxymethyl)-4-(methoxymethyl)-5-phenyl-1H-imidazole-1-yl]-2-methylpropan-2-ol]	1.0 ± 0.3
CCOCc1ncc(-c2ccccc2)n1CC(C)(C)O [Compound 50, 1-[2-(ethoxymethyl)-5-phenyl-1H-imidazole-1-yl]-2-methylpropan-2-ol]	1.1 ± 0.3
CCOCc1nc(C#N)c(-c2ccccc2)n1CC(C)(C)O [Compound 38, 2-(ethoxymethyl)-1-(2-hydroxy-2-methylpropyl)-5-phenyl-1H-imidazole-4-carbonitrile]	1.1 ± 0.2
CCOCc1nc(CO)c(-c2ccccc2)n1CC(C)(C)O [Compound 43, 1-[2-(ethoxymethyl)-4-(hydroxymethyl)-5-phenyl-1H-imidazole-1-yl]-2-methylpropan-2-ol]	1.0 ± 0.2
CCOCc1nc(C(=N)N)c(-c2ccccc2)n1CC(C)(C)O [Compound 39, 2-(ethoxymethyl)-1-(2-hydroxy-2-methylpropyl)-5-phenyl-1H-imidazole-4-carboxamidine]	1.0 ± 0.2
CCOCc1nc(I)c(-c2cccc3ccccc23)n1CC(C)(C)O [Compound 62, 1-(2-(ethoxymethyl)-4-iodo-5-(naphthalen-1-yl)-1H-imidazole-1-yl)-2-methylpropan-2-ol]	0.06 ± 0.1
CCOCc1nc(I)c(-c2ccccc2)n1CC(C)C [Compound 58, 2-(ethoxymethyl)-4-iodo-1-(2-methylpropyl)-5-phenyl-1H-imidazole]	0.01 ± 0.01
CCOCc1nc(C(C)C)c(-c2ccccc2)n1CC(C)(C)O [Compound 48, 1-[2-(ethoxymethyl)-5-phenyl-4-(prop-2-yl)-1H-imidazole-1-yl]-2-methylpropan-2-ol]	0.9 ± 0.2

tested on: HEK-Blue hTLR8 cell line; assay: Toxicity test of compounds (CCK-8 cell viability); format: cell-based, human; parameters: key to WST1 (normalized toxicity effect): viability relative to control well (background-subtracted OD), 1 = control; details: normalized cell viability, HEK-Blue cell lines
Experimental: In the 96-well plate used for the above-mentioned activity test of compounds (remaining 50 μL of culture medium containing cells), 5 μL of CellCountingKit-8 (CCK-8) Supermix was added to each well. Note that the introduction of air bubbles into the wells should be avoided since the air bubbles would interfere with the detection of OD value.
The culture plate was incubated in an incubator for 1 to 4 hours,
The edge of the 96-well plate could be tapped gently before reading the plate, and then the absorbance at 450 nm was measured by using the multi-mode plate reader.
Cell viability (%) was determined using the following formula: cell viability (%)=([Compound well ([…])−Background well (OD450)]/[Control well ([…])−Background well (OD450)])×100%. Among these, the background well was only added with the medium and CCK-8 reagent, the control well was only added with the medium, cells, R848 and CCK-8, and the compound wells were added with the medium, cells, R848, compounds in different concentrations, and CCK-8.

Compound	WST1 (normalized toxicity effect)
CCOCc1nc(C)c(-c2ccccc2)n1CC(C)(C)O [Compound 45, 1-[2-(ethoxymethyl)-4-methyl-5-phenyl-1H-imidazole-1-yl]-2-methylpropan-2-ol]	0.8 ± 0.3
CCOCc1nc(C=O)c(-c2ccccc2)n1CC(C)(C)O [Compound 41, 2-(ethoxymethyl)-1-(2-hydroxy-2-methylpropyl)-5-phenyl-1H-imidazole-4-carbaldehyde]	0.7 ± 0.2
CCOCc1nc(COC)c(-c2ccccc2)n1CC(C)(C)O [Compound 44, 1-[2-(ethoxymethyl)-4-(methoxymethyl)-5-phenyl-1H-imidazole-1-yl]-2-methylpropan-2-ol]	0.8 ± 0.2
CCOCc1ncc(-c2ccccc2)n1CC(C)(C)O [Compound 50, 1-[2-(ethoxymethyl)-5-phenyl-1H-imidazole-1-yl]-2-methylpropan-2-ol]	0.9 ± 0.2
CCOCc1nc(C#N)c(-c2ccccc2)n1CC(C)(C)O [Compound 38, 2-(ethoxymethyl)-1-(2-hydroxy-2-methylpropyl)-5-phenyl-1H-imidazole-4-carbonitrile]	0.7 ± 0.3
CCOCc1nc(CO)c(-c2ccccc2)n1CC(C)(C)O [Compound 43, 1-[2-(ethoxymethyl)-4-(hydroxymethyl)-5-phenyl-1H-imidazole-1-yl]-2-methylpropan-2-ol]	0.8 ± 0.1
CCOCc1nc(C(=N)N)c(-c2ccccc2)n1CC(C)(C)O [Compound 39, 2-(ethoxymethyl)-1-(2-hydroxy-2-methylpropyl)-5-phenyl-1H-imidazole-4-carboxamidine]	0.7 ± 0.2
CCOCc1nc(I)c(-c2cccc3ccccc23)n1CC(C)(C)O [Compound 62, 1-(2-(ethoxymethyl)-4-iodo-5-(naphthalen-1-yl)-1H-imidazole-1-yl)-2-methylpropan-2-ol]	0.8 ± 0.1
CCOCc1nc(I)c(-c2ccccc2)n1CC(C)C [Compound 58, 2-(ethoxymethyl)-4-iodo-1-(2-methylpropyl)-5-phenyl-1H-imidazole]	0.3 ± 0.2
CCOCc1nc(C(C)C)c(-c2ccccc2)n1CC(C)(C)O [Compound 48, 1-[2-(ethoxymethyl)-5-phenyl-4-(prop-2-yl)-1H-imidazole-1-yl]-2-methylpropan-2-ol]	0.8 ± 0.3
